Experiments:
Test in all cases: selective drug sensitivity score (sDSS, relative to normal bone marrow) (sDSS (score)); higher = more potent and effective on the cell line relative to normal bone marrow cells
Details in all cases: 72 h
LC4-1 = test system: LC4-1
MHH-CALL-2 = test system: MHH-CALL-2
KASUMI-2 = test system: KASUMI-2
NALM-16 = test system: NALM-16
SUP-B15 = test system: SUP-B15
REH = test system: REH
HAL-01 = test system: HAL-01
P30-OHKUBO = test system: P30-OHKUBO
ALL-SIL = test system: ALL-SIL
JURKAT = test system: JURKAT
SEM cells = test system: SEM cells
MHH-CALL-3 = test system: MHH-CALL-3
COG-LL-355h = test system: COG-LL-355h
697 = test system: 697
NALM-6 = test system: NALM-6
RPMI-8402 = test system: RPMI-8402
MOLT-14 = test system: MOLT-14
PEER = test system: PEER
COG-LL-317 = test system: COG-LL-317
COG-LL-402h = test system: COG-LL-402h
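Also: ALL cell lines in 384-well plates, five doses spanning 10,000-fold, each plate scaled between vehicle and 100 µmol/L benzalkonium chloride controls, sDSS an adapted area-under-curve metric.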

| Structure (SMILES) | selective drug sensitivity score (LC4-1) | selective drug sensitivity score (MHH-CALL-2) | selective drug sensitivity score (KASUMI-2) | selective drug sensitivity score (NALM-16) | selective drug sensitivity score (SUP-B15) | selective drug sensitivity score (REH) | selective drug sensitivity score (HAL-01) | selective drug sensitivity score (P30-OHKUBO) | selective drug sensitivity score (ALL-SIL) | selective drug sensitivity score (JURKAT) | selective drug sensitivity score (SEM cells) | selective drug sensitivity score (MHH-CALL-3) | selective drug sensitivity score (COG-LL-355h) | selective drug sensitivity score 697 | selective drug sensitivity score (NALM-6) | selective drug sensitivity score (RPMI-8402) | selective drug sensitivity score (MOLT-14) | selective drug sensitivity score (PEER) | selective drug sensitivity score (COG-LL-317) | selective drug sensitivity score (COG-LL-402h) |
| --- | --- | --- | --- | --- | --- | --- | --- | --- | --- | --- | --- | --- | --- | --- | --- | --- | --- | --- | --- | --- |
| CCNc1nc(Nc2cc(F)c(C(=O)N3CCOCC3)cc2OC)ncc1C(F)(F)F [GNE-7915] (top concentration 1000 nM) | -0.06 | 1.74 | -0.06 | -0.06 | -0.06 | -0.06 | 1.04 | -0.06 | -0.06 | -0.06 | -0.06 | -0.06 | -0.06 | -0.06 | -0.06 | -0.06 | -0.06 | -0.06 | 0.34 | -0.06 |
| COc1cc2ncnc(Nc3ccc(F)c(Cl)c3)c2cc1OCCCN1CCOCC1 [Gefitinib] (top concentration 10000 nM) | 1.16 | 1.86 | -3.04 | -3.04 | 1.56 | 2.36 | -0.14 | -0.04 | 3.66 | -1.44 | 0.66 | -2.94 | 0.96 | 2.26 | -0.44 | 3.96 | 1.96 | 2.76 | 0.36 | 0.96 |
| CN1CC[C@@H](NC(=O)Nc2ccc(C#N)cc2)C[C@@H]1c1nc2ccccc2[nH]1 [Glasdegib] (top concentration 1000 nM) | 0 | 0 | 11.9 | 0 | 0 | 1.6 | 0 | 0 | 0.8 | 0 | 0 | 0.7 | 0 | 0 | 0 | 0 | 0 | 0 | 1.5 | 0 |
| CN1CCN(C2CCN(C(=O)Nc3cc(Oc4ccc(NC(=O)C5(C(=O)Nc6ccc(F)cc6)CC5)c(F)c4)ccn3)CC2)CC1 [Golvatinib] (top concentration 2500 nM) | 2.46 | 0.26 | -0.14 | -0.14 | 3.56 | 2.46 | 0.76 | 0.56 | 4.56 | -0.14 | 6.56 | -0.14 | -0.14 | 1.76 | 1.06 | 0.26 | -0.14 | 2.46 | -0.14 | -0.14 |
| CC(C)C[C@H](NC(=O)[C@@H](COC(C)(C)C)NC(=O)[C@H](Cc1ccc(O)cc1)NC(=O)[C@H](CO)NC(=O)[C@H](Cc1c[nH]c2ccccc12)NC(=O)[C@H](Cc1cnc[nH]1)NC(=O)[C@@H]1CCC(=O)N1)C(=O)N[C@@H](CCCNC(=N)N)C(=O)N1CCC[C@H]1C(=O)NNC(N)=O [Goserelin] (top concentration 10000 nM) | -0.06 | -0.06 | -0.06 | -0.06 | -0.06 | 0.14 | -0.06 | -0.06 | -0.06 | -0.06 | -0.06 | -0.06 | -0.06 | -0.06 | -0.06 | -0.06 | -0.06 | -0.06 | -0.06 | -0.06 |
| O=S(=O)(c1cccc2c(O)nccc12)N1CCCNCC1 [Hydroxyfasudil] (top concentration 19000 nM) | -0.92 | 5.88 | 0.08 | -0.92 | -0.52 | -0.62 | 1.38 | -0.52 | -0.92 | -0.92 | 0.08 | 3.88 | -0.92 | 1.18 | -0.92 | -0.72 | -0.92 | 0.08 | -0.22 | -0.92 |
| COc1cc(C(=O)O)ccc1NC(=O)[C@@H]1N[C@@H](CC(C)(C)C)[C@](C#N)(c2ccc(Cl)cc2F)[C@H]1c1cccc(Cl)c1F [Idasanutlin] (top concentration 10000 nM) | 19.1 | 18.7 | 18.2 | -8.74 | 29.3 | 8.16 | 19.1 | 20.8 | -12.5 | -7.74 | -10 | 21.9 | 13.7 | 16.8 | 5.66 | -12.5 | 15.6 | -9.04 | 28.4 | 15.4 |
| CCN1CCN(c2ccc(Nc3cc(N(C)C(=O)Nc4c(Cl)c(OC)cc(OC)c4Cl)ncn3)cc2)CC1 [Infigratinib] (top concentration 1000 nM) | 0 | 0 | 0 | 0 | 0 | 0 | 0 | 0 | 0 | 0 | 0 | 0 | 0 | 0 | 0 | 0 | 0 | 0 | 0 | 0 |
| O=C(Nc1cnn2ccc(N3CCC[C@@H]3c3cc(F)ccc3F)nc12)N1CC[C@H](O)C1 [Larotrectinib] (top concentration 1000 nM) | 1.28 | -0.52 | -0.62 | -0.62 | 0.08 | -0.62 | 0.68 | -0.52 | -0.62 | -0.62 | -0.62 | -0.62 | 0.48 | -0.62 | 0.48 | -0.62 | -0.62 | -0.62 | -0.62 | 2.78 |
| C[C@]1(O)C[C@@H](c2nc(-c3ccc4ccc(-c5ccccc5)nc4c3)c3c(N)nccn32)C1 [Linsitinib] (top concentration 10000 nM) | 0.92 | 2.32 | -0.28 | -3.18 | -3.18 | -3.18 | -1.78 | -0.68 | 2.22 | -3.18 | 0.62 | -3.18 | 3.12 | -2.68 | -3.18 | -2.08 | -3.18 | -0.98 | -3.18 | -3.18 |
| O=C(O)CC[C@H]1CC[C@@](c2cc(F)ccc2F)(S(=O)(=O)c2ccc(Cl)cc2)CC1 [MK-0752] (top concentration 1000 nM) | 0 | 3.8 | 0 | 0 | 0 | 0 | 3.5 | 2.5 | 0 | 0 | 0 | 0 | 0 | 0 | 0 | 3.2 | 0 | 0 | 0 | 0 |
| CNC(=O)[C@@H](NC(=O)[C@H](CC(C)C)[C@H](O)C(=O)NO)C(C)(C)C [Marimastat] (top concentration 10000 nM) | -1.28 | 9.42 | -0.98 | 4.22 | 4.52 | -1.28 | -1.28 | -0.18 | -1.28 | 2.42 | -1.08 | -1.28 | -1.28 | -0.68 | -1.28 | -0.68 | 2.92 | 1.42 | -1.28 | -0.38 |
| Clc1ccc(C(c2ccccc2Cl)C(Cl)Cl)cc1 (stereo not given) [Mitotane] (top concentration 10000 nM) | -0.08 | 1.32 | -0.08 | -0.08 | -0.08 | -0.08 | 0.62 | -0.08 | -0.08 | -0.08 | -0.08 | -0.08 | 0.02 | -0.08 | -0.08 | -0.08 | 0.32 | -0.08 | -0.08 | -0.08 |
| CCS(=O)(=O)Nc1ccc(Oc2ccc(F)cc2F)c(-c2cn(C)c(=O)c3[nH]ccc23)c1 [Mivebresib] (top concentration 10000 nM) | 8.9 | 14.8 | -14.8 | 0.5 | 7.8 | -1.8 | 1.1 | 15.3 | 1.7 | 3.55e-15 | 16 | 17.2 | 6 | 16.5 | 6 | 4.6 | 2.7 | 1.1 | 11.5 | 12.7 |
| CN1C(=O)N[C@H](Cc2c[nH]c3c(Cl)cccc23)C1=O [Necrostatin_2] (top concentration 10000 nM) | -0.08 | -0.08 | -0.08 | -0.08 | -0.08 | -0.08 | -0.08 | -0.08 | -0.08 | -0.08 | -0.08 | -0.08 | -0.08 | -0.08 | -0.08 | -0.08 | -0.08 | -0.08 | -0.08 | -0.08 |
| O=c1ncn2nc(Sc3ccc(F)cc3F)ccc2c1-c1c(Cl)cccc1Cl [Neflamapimod] (top concentration 10000 nM) | 0.9 | 1.8 | 0 | 0 | 0.5 | 3.1 | 2.5 | 2.2 | 1.3 | 1.7 | 1.5 | 0 | 2.2 | 2.9 | 0.6 | 2.1 | 0 | 2.3 | 1.7 | 0.1 |
| CC(O)c1cc(C(=O)N[C@@H](C)Cn2ccc(-c3ccc(C#N)c(Cl)c3)n2)n[nH]1 (stereo not given in full) [ODM-201] (top concentration 2500 nM) | 1.62 | 0.02 | -0.28 | -0.28 | 4.22 | 0.02 | 1.42 | 0.22 | 4.72 | 0.72 | -0.28 | 0.82 | 2.52 | 0.12 | 1.22 | 0.12 | 0.82 | 1.02 | 1.22 | 4.62 |
| C=CC(=O)Nc1cccc(Oc2nc(Nc3ccc(N4CCN(C)CC4)cc3)nc3ccsc23)c1 [Olmutinib] (top concentration 1000 nM) | -0.02 | 6.88 | -0.02 | -0.02 | -0.02 | 2.28 | 5.78 | 1.38 | -0.02 | -0.02 | -0.02 | -0.02 | 1.78 | -0.02 | -0.02 | -0.02 | -0.02 | -0.02 | 0.48 | 1.28 |

— the supplement of paper PMC8967900
